In patent publication US5162360A, “2-heteroatom containing urea and thiourea ACAT inhibitors” (Warner-Lambert Company, priority 1991, dated 1992):
pIC50: −log10 of the molar value.

Columns and labels:
[1] = APCC in vivo screen: blood cholesterol in cholesterol-fed rats; set-up: species or system male Sprague-Dawley rats; settings: Rattus norvegicus, 192 h, oral, chow diet with peanut oil 5.5%, cholesterol 1.5%, cholic acid 0.5%, blood sampled next day 8 AM, read-out: % Change (mg/dl)
Protocol: In one in vivo screen designated APCC, male Sprague-Dawley rats (200 to 225 g) were randomly divided into treatment groups and dosed orally at 4 PM with either vehicle (CMC/Tween) or suspensions of test compounds in vehicle. The control group received vehicle alone. […] The next day the animals were sacrificed at 8 AM to obtain blood samples for cholesterol analysis using standard procedures. Statistical differences between mean cholesterol values for the same vehicle were determined using analysis of variance followed by Fisher's least significant test. […] The figure in parenthesis indicates the number of milligrams/kilogram of test compound administered.

[2] = molecular target: T1, acyl-coenzyme A:cholesterol acyltransferase (ACAT) (Oryctolagus cuniculus, UniProt G1SFD9); assay: In vitro ACAT inhibition (radiolabeled cholesterol oleate formation from oleic acid, rabbit intestinal microsomes); type: biochemical
T1 sequence (G1SFD9 1-524): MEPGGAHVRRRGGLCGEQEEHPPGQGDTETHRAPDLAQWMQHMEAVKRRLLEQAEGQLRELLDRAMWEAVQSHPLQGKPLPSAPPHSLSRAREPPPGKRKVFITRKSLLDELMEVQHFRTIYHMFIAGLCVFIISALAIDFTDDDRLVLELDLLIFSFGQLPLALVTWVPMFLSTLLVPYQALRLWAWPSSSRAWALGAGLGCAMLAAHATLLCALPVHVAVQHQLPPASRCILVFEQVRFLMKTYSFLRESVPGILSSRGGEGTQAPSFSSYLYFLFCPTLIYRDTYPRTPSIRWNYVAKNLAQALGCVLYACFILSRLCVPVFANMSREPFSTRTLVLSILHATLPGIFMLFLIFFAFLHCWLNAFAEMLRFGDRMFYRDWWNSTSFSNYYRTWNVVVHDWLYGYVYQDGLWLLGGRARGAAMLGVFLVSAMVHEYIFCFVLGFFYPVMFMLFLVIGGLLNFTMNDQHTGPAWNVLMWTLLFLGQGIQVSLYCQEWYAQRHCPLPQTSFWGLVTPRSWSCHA
Protocol: The ability of representative compounds of the present invention to inhibit ACAT was measured using an in vitro test more fully described by F. J. Field and R. G. Salone, in Biochemica et Biophysica 712:557-570 (1982). The test assesses the ability of a test compound to inhibit the acylation of cholesterol by oleic acid by measuring the amount of radio-labeled cholesterol oleate formed from radiolabeled oleic acid in a tissue preparation containing rabbit intestinal microsomes.

| pIC50 [2] | Structure (SMILES) | change in vivo at 30 mg/kg [1] | change in vivo at 3 mg/kg [1] |
| --- | --- | --- | --- |
| < 5.30 | Cc1csc(NC(=O)Nc2c(C(C)C)cccc2C(C)C)n1 [Example 6, N-[2,6-bis(1-methylethyl)phenyl]-N'-(4-methyl-2-thiazolyl)urea] | – | – |
| < 6.00 | CC(C)c1cccc(C(C)C)c1NC(=O)Nc1nc(C(C)(C)C)cs1 [Example 7, N-[2,6-bis(1-methylethyl)phenyl]-N'-(4-tert-butyl-2-thiazolyl)urea] | – | – |
| 7.57 | CCCCCCCCCCCc1cc(NC(=O)Nc2c(C(C)C)cccc2C(C)C)no1 [Example 15, N-[2,6-bis(1-methylethyl)phenyl]-N'-(5-undecyl-3-isoxazolyl)urea] | -61% | -51% |
| < 5.30 | Cc1cc(NC(=O)Nc2c(C(C)C)cccc2C(C)C)no1 [Example 18, N-[2,6-bis(1 methylethyl)phenyl]-N'-(5-methyl-3-isoxazolyl)urea] | – | – |
| 5.57 | CCCCCCN(CCCCCC)Cc1cc(NC(=O)Nc2c(C(C)C)cccc2C(C)C)no1 [Example 20, N-[2,6-bis(1-methylethyl)phenyl]-N'-[5-[(dihexylamino)methyl]-3-isoxazolyl]urea] | -7% | – |
| 5.72 | CCCCN(CCCC)Cc1cc(NC(=O)Nc2c(C(C)C)cccc2C(C)C)n(Cc2ccccc2)n1 [Example 22, N-[2,6-bis(1-methylethyl)phenyl]-N'-[3-[(dibutylamino)methyl]-1-(phenylmethyl)-1H-pyrazol-5-yl]urea] | -9% | – |
| 7.46 | CCCCCCCCCCCn1nccc1NC(=O)Nc1c(C(C)C)cccc1C(C)C [Example 23, N-[2,6-bis(1-methylethyl)phenyl]-N'-(1-undecyl-1H-pyrazol-5-yl)urea] | -64% | 5% |
| 7.00 | CCCCCCCCCCCCc1cc(NC(=O)Nc2c(C(C)C)cccc2C(C)C)n(-c2ccccn2)n1 [Example 24, N-[2,6-bis(1-methylethyl)phenyl]-N'-[3-dodecyl-1-(2-pyridyl)-1H-pyrazol-5-yl]urea] | 9% | – |

More lines, now with the values behind:

| Structure (SMILES) | pIC50 [2] | change in vivo at 30 mg/kg [1] | change in vivo at 3 mg/kg [1] |
| --- | --- | --- | --- |
| CCCCCCCCCCc1sc(NC(=O)Nc2c(C(C)C)cccc2C(C)C)nc1C [Example 1, N-[2,6-bis(1-methylethyl)phenyl]-N'-(5-decyl-4-methyl-2-thiazolyl)urea] | – | -20% | – |
| CCCCCc1sc(NC(=O)Nc2c(C(C)C)cccc2C(C)C)nc1C [Example 3, N-[2,6-bis(1-methylethyl)phenyl]-N-(5-pentyl-4-methyl-2-thiazolyl)urea] | 5.72 | -17% | – |
| CCCCCCc1csc(NC(=O)Nc2c(C(C)C)cccc2C(C)C)n1 [Example 4, N-[2,6-bis(1-methylethyl)phenyl]-N'-(4-hexyl-2-thiazolyl)urea] | 5.80 | 4% | – |
| CC(C)c1cccc(C(C)C)c1NC(=O)Nc1nc(-c2ccccc2)cs1 [Example 5, N-[2,6-bis(1-methylethyl)phenyl]-N'-(4-phenyl-2-thiazolyl)urea] | < 5.30 | – | – |
| CCCCCCCCCCCCc1cc(NC(=O)Nc2c(C(C)C)cccc2C(C)C)on1 [Example 8, N-[2,6-bis(1-methylethyl)phenyl]-N'-(3-dodecyl-5-isoxazolyl)urea] | – | -61% | -58% |
| CCCCCCCCCCCCc1cc(NC(=O)Nc2c(C(C)C)cccc2C(C)C)no1 [Example 9, N-[2,6-bis(1-methylethyl)phenyl]-N'-(5-dodecyl-3-isoxazolyl)urea] | 7.57 | -67% | -54% |
| CCCCCCCCCCc1cc(NC(=O)Nc2c(C(C)C)cccc2C(C)C)on1 [Example 10, N-[2,6-bis(1-methylethyl)phenyl]-N'-(3-decyl-5-isoxazolyl)urea] | – | -69% | -61% |
| CCCCCCCCCCCc1cc(NC(=O)Nc2c(C(C)C)cccc2C(C)C)on1 [Example 11, N-[2,6-bis(1-methylethyl)phenyl]-N'-(3-undecyl-5-isoxazolyl)urea] | 7.70 | -70% | -67% |
| CCCCCCCCCCCCCc1cc(NC(=O)Nc2c(C(C)C)cccc2C(C)C)on1 [Example 12, N-[2,6-bis(1-methylethyl)phenyl]-N'-(3-tridecyl-5-isoxazolyl)urea] | – | -62% | -51% |
| CCCCCCCCCCCCCCc1cc(NC(=O)Nc2c(C(C)C)cccc2C(C)C)on1 [Example 13, N-[2,6-bis(1-methylethyl)phenyl]-N'-(3-tetradecyl-5-isoxazolyl)urea] | – | -64% | -44% |
| CCCCCCCCCCc1cc(NC(=O)Nc2c(C(C)C)cccc2C(C)C)no1 [Example 14] | 7.55 | -62% | -29% |
| CCCCCCCCCCCCCc1cc(NC(=O)Nc2c(C(C)C)cccc2C(C)C)no1 [Example 16, N-[2,6-bis(1-methylethyl)phenyl]-N'-(5-tridecyl-3-isoxazolyl)urea] | – | -62% | -59% |
| CCCCCCCCCCCCCCc1cc(NC(=O)Nc2c(C(C)C)cccc2C(C)C)no1 [Example 17, N-[2,6-bis(1-methylethyl)phenyl]-N'-(5-tetradecyl-3-isoxazolyl)urea] | 6.96 | -58% | -47% |
| CCCCN(CCCC)Cc1cc(NC(=O)Nc2c(C(C)C)cccc2C(C)C)no1 [Example 19, N-[2,6-bis(1-methylethyl)phenyl]-N'-[5-[(dibutylamino)methyl]-3-isoxazolyl]urea] | 6.29 | -50% | -33% |
